Test results as given in patent publication US7026356B2, “Fatty acid analogues for the treatment of diseases caused by the pathological proliferation of smooth muscle cells” (priority 1998, dated 2006).

Tests used:
[1] = Local administration of radiolabelled TTA, presence in coronary arteries; assay type: in vivo; settings: administered locally in two extra pigs; after 4 and 6 weeks
[2] = system: strains of Escherichia coli; assay: Tests for mutagenic activity in bacterial strains; assay type: cell-based; settings: E. coli; 3–1000 mg/plate (TTA), 2–5000 mg/plate (TSA)
Excerpt: (§1) Tests for mutagenic activity have been performed by Covance Laboratories Limited, England. […] Furthermore, TTA was not mutagenic when tested in mouse lymphoma cells […] L5178Y.

[3] = system: strains of Salmonella typhimurium; assay: Tests for mutagenic activity in bacterial strains; assay type: cell-based; settings: S. typhimurium; 3–1000 mg/plate (TTA), 2–5000 mg/plate (TSA)
Excerpt: as §1

[4] = Plasma lipid lowering on feeding moderate doses to animals; assay type: in vivo, rats, mice, rabbits and dogs; settings: for potency in lowering plasma triacylglycerols and cholesterol: compared with polyunsaturated fatty acids like EPA
Excerpt: (§2) Feeding moderate doses of TTA to animals like rats, mice, rabbits and dogs decreased both plasma cholesterol and triacylglycerol levels within days of treatment.

[5] = system: cultured Chinese hamster ovary cells; assay: Chromosomal aberrations in cultured Chinese hamster ovary cells; assay type: cell-based; settings: CHO cells, doses tested 12–140 mg/ml
[6] = Total plasma homocysteine in rats given TTA; assay type: in vivo; settings: Male Wistar rats, 300 mg TTA per kg body weight per day in 10 days
Procedure: Increased levels of homocysteine, i.e. hyperhomocysteinemia has been proposed to be associated with arterial diseases, and we thus measured the levels of homocysteine in plasma samples from Male Wistar rats given 300 mg TTA per kg body weight per day in 10 days.
Total plasma homocysteine was measured by a fully automated fluorescence assay. 30 μl plasma was reduced by 30 μl NaBH4/DMSO solution (6 mol/L). After 1.5 min 20 μl of the fluorescence reagent monobromobimane (25 mmol/L) in acetonitrile was added and allowed to react for 3 min. 20 μl of the sample was then immediately analysed with HPLC by injection on a strong cation-exchange column, and then by column switching into a cyclohexyl silica column. The SCX column was eluted isocratically and the CH column was eluted with a linear methanol gradient (17–35% in 5 min) in 20 mmol/L formate buffer. The homocysteine was eluted at a retention time of 4.5 min.

[7] = system: human smooth muscle cells (SMC); assay: Proliferation of cultured smooth muscle cells (cell counting); assay type: cell-based; settings: 100 μM with BSA, cells counted after 3 and 6 days, FIG. 3
Procedure: SMC are human smooth muscle cells available from American Type Culture Collection (Type 1999-CRL). The SMC cells were cultured in bottles (75 cm^2) in Ham's F12K medium. 24 hours after inoculation, the fatty acids and BSA in a molar ratio of 1:2.5 were added to the medium, i.e. to a final concentration of palmitic acid and TTA of 100 μM. After 3 and 6 days the cells were trypsinated, and the number of cells determined by using a light microscopy with counting chambers (Leitz Wetzler).

[8] = system: restenosis (coronary artery, LAD or LCx); assay: Prevention of restenosis in mini pigs, local administration of TTA, quantitative angiography and histology; assay type: in vivo; settings: minipigs; for Luminal diameter: local TTA 3 x 0.5 ml (0.33 mg/ml)
Excerpt: (§3) Various local drug delivery systems have been developed to enable local application of pharmacological agents in conjunction with PTCA. In this study 20 minipigs were randomised to placebo or active treatment with the fatty acid analogue tetradecylthioaceticacid acid (TTA) via a Transport® multiphorous angioplasty balloon catheter. This catheter has a sleeve embracing the balloon and the drug is delivered through a separate lumen connected to the sleeve which has multiple holes.
(§4) Coronary balloon angioplasty injury using an oversized balloon was performed to the LAD or LCx followed by 3 bolus deliveries of 0.5 ml (0.33 mg/ml TTA) of active drug/placebo. Quantitative angiography as indicated in the preceding sections was performed before and after injury, and after 4 weeks follow-up. Subsequently the pigs were sacrificed, perfusion-fixed with glutaraldehyde and the vessels prepared for histology with computer assisted planimetry.

[9] = 28 days toxicity study in dogs (GLP); assay type: in vivo
Excerpt: A 28 days toxicity study in dogs according to GLP guide-lines has been performed by Corning Hazleton (Europe), England. […] Some lipid related parameters were lowered in the animals given high dosages. This is consistent with the pharmacological activity of TTA.

[10] = system: mitochondrial β-oxidation system; assay: Mitochondrial β-oxidation
Excerpt: The studies have shown that TTA has properties very similar to natural fatty acids, the main difference being that TTA is not oxidised by the mitochondrial β-oxidation system.
as §2

[11] = system: mouse lymphoma cells, L5178Y; assay: Mutagenicity in mouse lymphoma cells; assay type: cell-based; settings: 2.5–50 mg/ml
Excerpt: as §1

restenosis = assay: IVUS (intravascular ultrasound) after balloon injury; assay type: in vivo, minipigs
Procedure: (§5) A follow-up angiography was performed in the same frontal view after 10 weeks, following the same procedure as indicated above, by using ioxaglate (Hexabrix®) as contrast medium. The sheath was now inserted in the left carotid artery. Intravascular ultrasound was performed to quantitate wall thickness and lumen diameter. After angiography a laparotomy was performed and the abdominal aorta was cannulated with an 18G infusion-needle. The animals were euthanised by giving overdose pentobarbital intraarterially via the sheath in the left carotid artery.
as §3, §4
The ICUS (intracoronary ultrasound) results were consistent with the angiography data.

[12] = system: restenosis (iliac artery); assay: Prevention of restenosis in rabbits given TTA orally, quantitative angiography after iliac balloon angioplasty; assay type: in vivo, Chinchilla (Chbb:CH) rabbits; settings: for diameter artery (Ds) / dilatation/stenosis (Dr − Ds)/Dr / reference diameter (Dr): TTA 800 mg daily oral
Procedure: Fourteen Chinchilla (Chbb:CH) rabbits of either sex were randomised either to receive supplement with TTA fatty acids 800 mg daily (mean weight 3.6±0.09 kg) or to placebo (mean weight 3.5±0.47 kg).
The animals were pre-treated with TTA given as oral supplements, mixed with daily food pellets, for three weeks to ensure accumulation of the fatty acid analogues in the tissues.
After premedication with 0.5 ml fentanyl (0.315 mg/ml) and fluanisone (10 mg/ml) (Hypnorm®) intramuscularly, the rabbits were anaesthetised by administering diazepam 4 mg/kg intraperitoneally and maintained by additional 0.3–0.4 ml of a 1:1 mixture of Hypnorm® and diazepam, usually necessary once during the procedure.
After local infiltration of the skin by lignocaine (Xylocaine®) and surgical cut-down, the right carotid artery was cannulated by a 6F sheath. A bolus of 100 U/kg of heparin was administered intraarterially. Before the angioplasty, an angiography was performed in the frontal view by injecting 3 ml of ioxaglate (Hexabrix®) as contrast medium via a Berman® catheter.
An angioplasty balloon catheter (Express®) of 2.5 mm was positioned in the proximal part of each iliac artery and balloon angioplasty was performed with 2 balloon inflations at the same site in each artery, at 8 and 12 atmosphere for 30 seconds each to overstretch the artery. The balloon marker, on the middle of the 20 mm long balloon, was placed over the ilio-sacral joint, thus ensuring that the balloon was positioned at identical sites. Inflation was performed using a pressure manometer (Encore® 26 inflation device, Scimed, Boston Scientific corporation).
A further angiography was performed in the same frontal view as the first angiography to assure artery patency. The carotid artery was ligated and the skin was closed with ligatures. Buprenorfin 0.3 mg (Temgesic®) and penicillin were given subcutaneous once daily for the first days.
as §5
The frames with maximal opacification from baseline angiographies (before and after dilatation), as well as from the follow-up angiography were stored for subsequent quantitative analysis. Arterial diameter before and after dilatation as well as the balloon to artery ratio were measured. The minimal luminal diameter, reference diameter and stenosis were determined. All measurements were performed with a digital electronic calliper (Sandhill, model EC-1)(12). A balloon angioplasty catheter (Express® 2.5 mm), placed on the abdomen and dilated at 8 atmospheres (rated balloon diameter 2.5 mm) served for calibration.
Acute gain: minimal luminal diameter (MLD) post dilatation minus diameter artery before dilatation. Late loss: MLD post dilatation minus MLD at control angiography. Loss index: late loss divided by acute gain.

[13] = Hepatic and plasma fatty acid composition after TTA administration to rats; assay type: in vivo; settings: 12 weeks
Excerpt: Thus the compound of the present invention modifies the composition of the lipids in various tissues.

[14] = moderate doses, within days of treatment
[15] = control angiography (follow-up)

## CCCCCCCCCCCCCCSC[14C](=O)O [1-^14C-TTA]
[1]
  presence of active drug in the coronary arteries: confirmed the presence of active drug

## CCCCCCCCCCCCCC[Se]CC(=O)O [TSA, tetradecylselenioacetic acid]
[2]
  induction of mutations: did not induce mutations
[3]
  induction of mutations: did not induce mutations
[4]
  potency in lowering plasma triacylglycerols and cholesterol: far more potent
[5]
  chromosomal aberrations: no aberrations were induced

## Tetradecylthioacetic acid [TTA]
[6]
  Plasma concentration of homocysteine: 5.4 ± 1.0 µmol/L
[7]
  growth of smooth muscle cells: inhibiting effect
[8]; after PTCA
  Luminal diameter: 3.2 mm
[8]; at follow-up
  Luminal diameter: 2.2 mm
[8]; before PTCA
  Luminal diameter: 2.6 mm
[8]; treated group with respect to the placebo group
  maximal intimal thickness: unchanged
[9]; 500 mg/kg/day
  body weight: body weight loss
[9]; animals given high dosages
  lipid related parameters: lowered
[9]; dose levels of 50 or 500 mg/day/kg
  evidence of toxicity: no evidence of toxicity
[9]; oral, dose levels up to 500 mg/kg/day
  tolerability of oral administration: generally well tolerated
[2]
  induction of mutations: did not induce mutations
[3]
  induction of mutations: did not induce mutations
[10]
  oxidation by the mitochondrial β-oxidation system: not oxidised
[11]
  mutagenicity: not mutagenic
[4]
  potency in lowering plasma triacylglycerols and cholesterol: far more potent
[4]; [14]
  plasma cholesterol levels: decreased
  plasma triacylglycerol levels: decreased
[5]
  chromosomal aberrations: no aberrations were induced
restenosis
  Area site: 0.61 ± 0.152 mm^2
  Max. diameter site: 2.87 ± 0.408 mm
  Minimal diameter site: 2.76 ± 0.381 mm
[12]; MLD post dilatation minus MLD at control angiography
  late loss: 0.76 ± 0.38
[12]; MLD post dilatation minus diameter artery before dilatation
  acute gain: 0.48 ± 0.22 mm
[12]; after dilatation
  diameter artery (Ds): 2.36 ± 0.19 mm
  dilatation/stenosis (Dr − Ds)/Dr: −31.2
  reference diameter (Dr): 1.80 ± 0.17 mm
[12]; before dilatation
  diameter artery (Ds): 1.91 ± 0.18 mm
  reference diameter (Dr): 1.91 ± 0.18 mm
[12]; [15]
  diameter artery (Ds): 1.60 ± 0.26 mm
  dilatation/stenosis (Dr − Ds)/Dr: 23.5
  reference diameter (Dr): 2.07 ± 0.15 mm
[12]; follow-up after angioplasty, oral TTA
  decrease in artery diameter at follow-up: inhibited the decrease in artery diameter
[12]; late loss divided by acute gain
  loss index: 1.53 ± 0.46
[13]
  hepatic and plasma content of monounsaturated fatty acids (mainly oleic acid): nearly doubled
  polyunsaturated fatty acids (mainly linoleic acid and DHA): decreased
